Experimental data: the NIST ThermoML archive (doi:10.1021/acs.jced.5b00670)

Key:
[1] = mn = molality of the nth substance listed, in mol/kg; details: 298.15 K, 101.33 kPa, Liquid, Alternating current cell with electrodes
[2] = 298.15 K, 101.33 kPa, Liquid; for viscosity: Concentric cylinders viscometry; for mass density: Vibrating tube method

CCCC[P+](CCCC)(CCCC)CCCC.CS(=O)(=O)[O-] [tetrabutylphosphonium methanesulfonate] + CC#N
[1]
Details	molar conductivity [S·m2/mol]
m1 = 0.000975	0.0159
m1 = 0.001787	0.0156
m1 = 0.002451	0.0154
m1 = 0.003035	0.0153
m1 = 0.00354	0.0151
m1 = 0.00398	0.015
m1 = 0.004717	0.0149
m1 = 0.005305	0.0148
m1 = 0.006188	0.0146
m1 = 0.007186	0.0145
m1 = 0.00808	0.0143
m1 = 0.008774	0.0142

C[N+](=O)[O-] [nitromethane]
[2]
Details	mass density [kg/m3]	viscosity [mPa·s]
–	1130.15	0.62

CCCC[P+](CCCC)(CCCC)CCCC.CS(=O)(=O)[O-] [tetrabutylphosphonium methanesulfonate] + O
[1]
Details	molar conductivity [S·m2/mol]
m1 = 0.000818	0.00412
m1 = 0.001471	0.00388
m1 = 0.002032	0.00366
m1 = 0.002641	0.00348
m1 = 0.003191	0.00334
m1 = 0.003793	0.00317
m1 = 0.004583	0.003
m1 = 0.005305	0.00288
m1 = 0.006146	0.00274
m1 = 0.007072	0.00258
m1 = 0.007937	0.00245
m1 = 0.008497	0.0024

NC=O [formamide]
[2]
Details	mass density [kg/m3]	viscosity [mPa·s]
–	1129.22	3.3

CCCC[P+](CCCC)(CCCC)CCCC.CS(=O)(=O)[O-] [tetrabutylphosphonium methanesulfonate] + NC=O
[1]
Details	molar conductivity [S·m2/mol]
m1 = 0.00084	0.00215
m1 = 0.001471	0.00201
m1 = 0.002032	0.00186
m1 = 0.002641	0.00177
m1 = 0.003191	0.00167
m1 = 0.003793	0.00159
m1 = 0.004583	0.00148
m1 = 0.005305	0.00139
m1 = 0.006146	0.0013
m1 = 0.007072	0.00119
m1 = 0.007937	0.00113
m1 = 0.008497	0.00107

CO [methanol]
[2]
Details	mass density [kg/m3]	viscosity [mPa·s]
–	786.61	0.55

CC#N [acetonitrile]
[2]
Details	mass density [kg/m3]	viscosity [mPa·s]
–	776.68	0.34

CCCC[P+](CCCC)(CCCC)CCCC.CS(=O)(=O)[O-] [tetrabutylphosphonium methanesulfonate] + C[N+](=O)[O-]
[1]
Details	molar conductivity [S·m2/mol]
m1 = 0.000865	0.00765
m1 = 0.001335	0.00741
m1 = 0.00177	0.00723
m1 = 0.002409	0.00698
m1 = 0.002979	0.00674
m1 = 0.003623	0.00653
m1 = 0.004197	0.0063
m1 = 0.004926	0.00611
m1 = 0.005713	0.00588
m1 = 0.006624	0.00563
m1 = 0.007619	0.00541
m1 = 0.008608	0.00518

O [water]
Details	viscosity [mPa·s]
[2]	0.89

CCCC[P+](CCCC)(CCCC)CCCC.CS(=O)(=O)[O-] [tetrabutylphosphonium methanesulfonate] + CO
[1]
Details	molar conductivity [S·m2/mol]
m1 = 0.000912	0.00826
m1 = 0.001456	0.00793
m1 = 0.001998	0.00769
m1 = 0.002473	0.00752
m1 = 0.002947	0.00737
m1 = 0.003599	0.00721
m1 = 0.00425	0.007
m1 = 0.004926	0.00686
m1 = 0.005759	0.0066
m1 = 0.006723	0.00645
m1 = 0.007795	0.0062
m1 = 0.008664	0.00603
